“And” between values parts separate entries of the source, which are not always exact repeats. Equal entries are not always repeated. Where no end group is shown, it is not given here. [ ]: non-standard residue; d: D form. d2Nal = N[C@H](Cc1ccc2ccccc2c1)C(=O)O
Legend:
[1] = molecular target: T1, Ghrelin/GHRP/GHS Receptor (Rattus norvegicus, UniProt O08725); assay: In vitro cell culture method: GH release from cell culture of pituitary cells, peptide alone or plus stimulator; type: cell-based; design: from cell culture of pituitary cells; endogenous in cells; host or cells: dispersed primary rat anterior pituitary cells, 4 days in culture; settings: for GH release, first line of entry (mark P + S): stimulator 1 ng/ml; for Unstimulated Basal GH release: Table 8
Description: (§1) The peptides were synthesized by the solid phase method and purified by HPLC. GH was determined by Radioimmunoassay (RIA).
In vitro GH Release-Female rats of the CD-1 strain were housed in a constant temperature room at 24° C. with 14 h light and 10 h darkness. The rats were fed Purina Rat chow and water at libitum. All studies were started between 0800-1000 hours. Pituitaries of mature female Sprague Dawley rats were rapidly removed after decapitation, neurointermediate lobe discarded and then placed in a pH 7.4 buffer. The pituitaries were cut into ˜3-mm pieces and then transferred to a flask containing HEPS buffer with trypsin and incubated at 37° C. Cells were triturated several times during this period. After dispersion, the cells were collected by centrifugation, wash with DMEM and placed into culture well. Cell cultures were maintained for 4 days at 37° with 8% CO2 added to the incubator atmosphere. After 4 days in culture, cells were washed with lactated Ringer's solution adjusted to pH 7.2-7.4 and then vehicle, peptide alone or peptide plus stimulator was added to media. Incubation time was 60-120 minutes after which media was removed from each well for GH determination. The GH RIA reagents were distributed by the NIH. Control data was collected from cell cultures treated with only the corresponding vehicle in the absence of peptide or stimulator. Control stimulated data was collected from cell cultures treated with stimulator alone in the absence of any peptide.

[2] = molecular target: T1, Ghrelin/GHRP/GHS Receptor; assay: In vivo assay of GH release in rat, i.v. peptide alone or plus stimulator, serum GH by RIA; settings: Table 4; Pentobarbital Rats; peptide 30 μg i.v. + stimulator DAla-DβNal-Ala-Trp-DPhe-Lys-NH2 1 μg
Description: as §1
For the in vivo assay of GH Release in rat, immature female Sprague Dawley rats were obtained from Charles River from Wilmington, Mass. After arrival they were housed at 25° C. with a 14:10 h light:dark cycle. Water and Purina rat chow were available at libitum. Pups were weaned at 21 days of age.
Immature twenty six day old female Sprague Dawley rats, 3-6 rats per treatment dose, were pretreated with pentobarbital 20 minutes before iv injection of vehicle/peptide or peptide plus stimulator. Injection was made as a 0.1 ml solution. For the non-pentobarbital treated rat assay, peptides were administered iv into the tail vein of conscious rats. All animals were sacrificed by guillotine after iv peptide or vehicle. Trunk blood was collected at +10-15 minutes […], allowed to clot, centrifuged and serum stored until assayed for GH levels by RIA. The GH RIA reagents were distributed by the NIH. Control data was collected from rats treated with only the corresponding vehicle in the absence of peptide or stimulator. Control stimulated data was collected from rats treated with stimulator alone in the absence of any peptide.

T1 sequence (O08725 whole entry): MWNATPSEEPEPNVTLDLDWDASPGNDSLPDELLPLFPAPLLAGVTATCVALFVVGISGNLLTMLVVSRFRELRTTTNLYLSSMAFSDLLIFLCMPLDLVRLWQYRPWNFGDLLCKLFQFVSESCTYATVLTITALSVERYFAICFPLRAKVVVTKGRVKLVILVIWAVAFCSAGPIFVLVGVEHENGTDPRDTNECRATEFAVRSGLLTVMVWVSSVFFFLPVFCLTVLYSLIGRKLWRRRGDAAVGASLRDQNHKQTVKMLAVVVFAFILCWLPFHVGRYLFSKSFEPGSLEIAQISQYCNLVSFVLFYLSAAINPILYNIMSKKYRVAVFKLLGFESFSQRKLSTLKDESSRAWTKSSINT

Row | Compound | GH release, second line of entry (no mark) ([1]; Table 10, 10 μg/ml) | GH release, first line of entry (mark P + S) ([1]; Table 10, 10 μg/ml) | GH release, second line of entry (no mark) ([1]; Table 10, 30 μg/ml) | GH release, first line of entry (mark P + S) ([1]; Table 10, 30 μg/ml) | other results
1 | N[C@H](COCc1ccccc1)C(=O)N1CCN(c2ccccc2)CC1 [D Ser(BZL)-N′-phenyl-N-piperazinamide, (R)-2-amino-3-(benzyloxy)-1-(4-phenylpiperazin-1-yl)propan-1-one] | 719 ± 26 ng/mL | 585 ± 10 ng/mL | 435 ± 0 ng/mL | 368 ± 2 ng/mL | –
2 | COc1ccccc1C1CCN(C(=O)[C@@H](Cc2c[nH]c3ccccc23)NC(=O)C(C)(C)N)CC1 [(R)—N-(3-(1H-indol-3-yl)-1-(4-(2-methoxyphenyl)piperidin-1-yl)-1-oxopropan-2-yl)-2-amino-2-methylpropanamide] | – | – | – | – | GH release, second line of entry (no mark) ([1]; Table 11, 10 μg/ml): 441 ± 21 ng/mL; GH release, first line of entry (mark P + S) ([1]; Table 11, 10 μg/ml): 365 ± 2 ng/mL; GH release, second line of entry (no mark) ([1]; Table 11, 30 μg/ml): 384 ± 16 ng/mL; GH release, first line of entry (mark P + S) ([1]; Table 11, 30 μg/ml): 375 ± 30 ng/mL
3 | COC(=O)c1cc2ccccc2cc1C(=O)Nc1ccc(C)cc1 [methyl 3-(p-tolylcarbamoyl)-2-naphthoate] | – | – | – | – | GH release, second line of entry (no mark) ([1]; Table 11, 10 μg/ml): 1149 ± 33 ng/mL; GH release, first line of entry (mark P + S) ([1]; Table 11, 10 μg/ml): 754 ± 32 ng/mL; GH release, second line of entry (no mark) ([1]; Table 11, 30 μg/ml): 886 ± 29 ng/mL; GH release, first line of entry (mark P + S) ([1]; Table 11, 30 μg/ml): 498 ± 26 ng/mL
4 | N[C@H](Cc1c[nH]c2ccccc12)C(=O)N1CCC(c2ccccc2)CC1 [DTrp-4-phenylpiperdinamide, (R)-2-amino-3-(1H-indol-3-yl)-1-(4-phenylpiperidin-1-yl)propan-1-one] | 344 ± 6 ng/mL | 520 ± 61 ng/mL | 486 ± 29 ng/mL | 577 ± 24 ng/mL | GH release, second line of entry (no mark) ([1]; Table 10, 1 μg/ml): 1085 ± 1 ng/mL; GH release, first line of entry (mark P + S) ([1]; Table 10, 1 μg/ml): 815 ± 26 ng/mL; GH release, second line of entry (no mark) ([1]; Table 10, 3 μg/ml): 917 ± 4 ng/mL; GH release, first line of entry (mark P + S) ([1]; Table 10, 3 μg/ml): 390 ± 35 ng/mL
5 | CC(=O)NCCCC[C@H](NC(=O)[C@@H](N)COCc1ccccc1)C(=O)N[C@@H](Cc1c[nH]c2ccccc12)C(=O)N1CCC(c2ccccc2)CC1 [(S)—N—((S)-3-(1H-indol-3-yl)-1-oxo-1-(4-phenylpiperidin-1-yl)propan-2-yl)-6-acetamido-2-((S)-2-amino-3-(benzyloxy)propanamido)hexanamide] | 571 ± 32 ng/mL | 388 ± 41 ng/mL | 399 ± 24 ng/mL | 273 ± 39 ng/mL | –
6 | NCC[C@H](N)C(=O)N[C@H](COCc1ccc2ccccc2c1)C(=O)N1CCC(c2ccccc2)CC1 [(S)-2,4-diamino-N—((R)-3-(naphthalen-2-ylmethoxy)-1-oxo-1-(4-phenylpiperidin-1-yl)propan-2-yl)butanamide] | – | – | – | – | GH release, second line of entry (no mark) ([1]; Table 11, 10 μg/ml): 644 ± 33 ng/mL; GH release, first line of entry (mark P + S) ([1]; Table 11, 10 μg/ml): 794 ± 34 ng/mL; GH release, second line of entry (no mark) ([1]; Table 11, 30 μg/ml): 529 ± 20 ng/mL; GH release, first line of entry (mark P + S) ([1]; Table 11, 30 μg/ml): 504 ± 20 ng/mL
7 | C=C(C)CON=C(c1ccccc1)c1ccccc1 [O-(2-methylallyl) benzophonone oxime, O-(2-methylallyl)benzophenone oxime] | 1281 ± 58 ng/mL | 929 ± 28 ng/mL | 699 ± 53 ng/mL | 616 ± 23 ng/mL | –
8 | NCCCC[C@@H](NC(=O)[C@@H](CO)NC(=O)c1ccccc1)C(=O)N[C@@H](Cc1c[nH]c2ccccc12)C(=O)N1CCC(c2ccccc2)CC1 [N—((R)-1-((R)-1-((S)-3-(1H-indol-3-yl)-1-oxo-1-(4-phenylpiperidin-1-yl)propan-2-ylamino)-6-amino-1-oxohexan-2-ylamino)-3-hydroxy-1-oxopropan-2-yl)benzamide] | 353 ± 10 ng/mL | 369 ± 30 ng/mL | – | – | GH release, second line of entry (no mark) ([1]; Table 10, 3 μg/ml): 432 ± 25 ng/mL; GH release, first line of entry (mark P + S) ([1]; Table 10, 3 μg/ml): 393 ± 54 ng/mL
9 | CC(=O)N[C@@H](COCc1ccccc1)C(=O)N[C@@H](CCCCN)C(=O)N[C@H](Cc1c[nH]c2ccccc12)C(=O)N1CCC(c2ccccc2)CC1 [(S)—N—((R)-3-(1H-indol-3-yl)-1-oxo-1-(4-phenylpiperidin-1-yl)propan-2-yl)-2-((S)-2-acetamido-3-(benzyloxy)propanamido)-6-aminohexanamide] | – | – | – | – | GH release, first line of entry (mark P + S) ([1]; Table 11, 1 μg/ml): 680 ± 13 ng/mL; GH release, first line of entry (mark P + S) ([1]; Table 11, 3 μg/ml): 489 ± 41 ng/mL; GH release, first line of entry (mark P + S) ([1]; Table 11, 10 μg/ml): 245 ± 16 ng/mL
10 | CCOC(=O)c1cc2ccccc2cc1C(=O)N1CCC(c2ccccc2OC)CC1 [ethyl 3-(4-(2-methoxyphenyl)piperidine-1-carbonyl)-2-naphthoate] | 480 ± 9 ng/mL | 373 ± 2 ng/mL | 223 ± 22 ng/mL | 176 ± 11 ng/mL | –
11 | COc1ccccc1N1CCN(C(=O)c2cc3ccccc3cc2C(=O)N2CCN(c3ccccc3OC)CC2)CC1 [naphthalene-2,3-diylbis((4-(2-methoxyphenyl)piperazin-1-yl)methanone)] | 537 ± 28 ng/mL and 648 ± 16 ng/mL | 262 ± 4 ng/mL and 136 ± 11 ng/mL | 309 ± 46 ng/mL | 118 ± 8 ng/mL | GH release, second line of entry (no mark) ([1]; Table 10, 1 μg/ml): 654 ± 18 ng/mL; GH release, first line of entry (mark P + S) ([1]; Table 10, 1 μg/ml): 338 ± 3 ng/mL; GH release, second line of entry (no mark) ([1]; Table 10, 3 μg/ml): 442 ± 4 ng/mL; GH release, first line of entry (mark P + S) ([1]; Table 10, 3 μg/ml): 204 ± 10 ng/mL
12 | DAla-DcyclohexylAla-Ala-Ala-Phe-DPhe-Nle-NH2 | – | – | – | – | Unstimulated Basal GH release ([1]; peptide 1 μg/ml): 286 ± 75 ng/mL; Unstimulated Basal GH release ([1]; peptide 3 μg/ml): 177 ± 44 ng/mL; Unstimulated Basal GH release ([1]; peptide 10 μg/ml): 271 ± 38 ng/mL; Unstimulated Basal GH release ([1]; peptide 30 μg/ml): 376 ± 28 ng/mL
13 | [dA][d2Nal][dK][dW]FK-NH2 | – | – | – | – | Stimulated GH release (P + S) [2]: 2884 ± 828 ng/mL
14 | CC(C)(N)C(=O)N[C@H](COCc1ccccc1)C(=O)N1CCN(c2ccccc2)CC1 [αAibDSer(BZL)-N′-phenyl-N-piperazinamide, (R)-2-amino-N-(3-(benzyloxy)-1-oxo-1-(4-phenylpiperazin-1-yl)propan-2-yl)-2-methylpropanamide] | 878 ± 30 ng/mL | 777 ± 34 ng/mL | 510 ± 15 ng/mL | 499 ± 18 ng/mL | –

Source: patent US8536120B2 (The Administrators of The Tulane Educational Fund, priority 2006, dated 2013)
